Assay [1] has as its system Bacillus cereus. Kind of assay: Antibacterial activity against Bacillus cereus ATCC 14579 assessed as growth inhibition at 5 ug after 24 hrs by disc agar diffusion method. The assay is classed as functional. The note with it: ATCC 14579, 24 h, read-out: DIZ. A general note: In agar diffusion tests the substance spreads into inoculated agar from a disc or well.
Assay [2] deals with Staphylococcus aureus. As to the kind of experiment: Antibacterial activity against Staphylococcus aureus ATCC 25923 assessed as growth inhibition at 5 ug after 24 hrs by disc agar diffusion method. The assay is classed as functional. The note with it: ATCC 25923, 24 h, read-out: DIZ.
Assay [3] relates to Escherichia coli. Kind of assay: Antibacterial activity against Escherichia coli ATCC 35218 assessed as growth inhibition at 5 ug after 24 hrs by disc agar diffusion method. In kind it is functional. The note with it: ATCC 35218, 24 h, read-out: DIZ.
In assay [4] the test system is Pseudomonas aeruginosa. Kind of assay: Antibacterial activity against Pseudomonas aeruginosa ATCC 27853 assessed as growth inhibition at 5 ug after 24 hrs by disc agar diffusion method. In kind it is functional. The note with it: ATCC 27853, 24 h, read-out: DIZ.
Assay [5] relates to Bacillus cereus. As to the kind of experiment: Antibacterial activity against Bacillus cereus ATCC 14579 assessed as growth inhibition at 30 ug after 24 hrs by disc agar diffusion method. The assay is classed as functional. As to conditions: ATCC 14579, 24 h, read-out: DIZ.
The test system of assay [6] is Staphylococcus aureus. Kind of assay: Antibacterial activity against Staphylococcus aureus ATCC 25923 assessed as growth inhibition at 30 ug after 24 hrs by disc agar diffusion method. As to conditions: ATCC 25923, 24 h, read-out: DIZ. The assay is classed as functional.
For assay [7], the system named is Escherichia coli. Kind of assay: Antibacterial activity against Escherichia coli ATCC 35218 assessed as growth inhibition at 30 ug after 24 hrs by disc agar diffusion method. In kind it is functional. As to conditions: ATCC 35218, 24 h, read-out: DIZ.
The test system of assay [8] is Pseudomonas aeruginosa. Kind of assay: Antibacterial activity against Pseudomonas aeruginosa ATCC 27853 assessed as growth inhibition at 30 ug after 24 hrs by disc agar diffusion method. In kind it is functional. The note with it: ATCC 27853, 24 h, read-out: DIZ.
The subject of assay [9] is Bacillus cereus. Kind of assay: Antibacterial activity against Bacillus cereus ATCC 14579 assessed as growth inhibition at 15 ug after 24 hrs by disc agar diffusion method. In kind it is functional. As to conditions: ATCC 14579, 24 h, read-out: DIZ.
For assay [10], the system named is Staphylococcus aureus. As to the kind of experiment: Antibacterial activity against Staphylococcus aureus ATCC 25923 assessed as growth inhibition at 15 ug after 24 hrs by disc agar diffusion method. The note with it: ATCC 25923, 24 h, read-out: DIZ. In kind it is functional.
Assay [11] has as its system Escherichia coli. As to the kind of experiment: Antibacterial activity against Escherichia coli ATCC 35218 assessed as growth inhibition at 15 ug after 24 hrs by disc agar diffusion method. In kind it is functional. The note with it: ATCC 35218, 24 h, read-out: DIZ.
Assay [12] relates to Pseudomonas aeruginosa. Kind of assay: Antibacterial activity against Pseudomonas aeruginosa ATCC 27853 assessed as growth inhibition at 15 ug after 24 hrs by disc agar diffusion method. The assay is classed as functional. As to conditions: ATCC 27853, 24 h, read-out: DIZ.
Assay [13] has as its system PC-3. Kind of assay: Cytotoxicity against human PC3 cells assessed as growth inhibition after 72 hrs by MTT assay. The assay is classed as functional, cell-based. The note with it: PC-3, 72 h. (In general: Tetrazolium assays rely on reduction of a dye to a coloured formazan, in cell work by metabolically active cells.)
The test system of assay [14] is MCF7. Kind of assay: Cytotoxicity against human MCF7 cells assessed as growth inhibition after 72 hrs by MTT assay. The assay is classed as functional, cell-based. As to conditions: MCF7, 72 h.
The subject of a further assay is Leishmania mexicana. Kind of assay: Antileishmanial activity against promastigote stage of Leishmania mexicana Bel21 assessed as growth inhibition after 48 hrs by MTT assay. As to conditions: Bel21, 48 h. In kind it is functional, organism-based.
Another assay concerns Trypanosoma cruzi. Kind of assay: Antitrypanosomal activity against epimastigote stage of Trypanosoma cruzi CL Brener assessed as growth inhibition after 5 days by MTT assay. The assay is classed as functional. As to conditions: 120 h.
The nature of assay [15]: Cytotoxicity against human skin fibroblasts assessed as growth inhibition after 72 hrs by MTT assay. As to conditions: Skin fibroblast.
The test system of assay [16] is PC-3. Kind of assay: Selectivity index, ratio of IC50 for human skin fibroblasts to IC50 for human PC3 cells.
Assay [17] concerns MCF7. As to the kind of experiment: Selectivity index, ratio of IC50 for human skin fibroblasts to IC50 for human MCF7 cells.
A short description of assay [18]: Selectivity index, ratio of IC50 for human skin fibroblasts to IC50 for promastigote stage of Leishmania mexicana Bel21.
Assay [19] can be described thus: Selectivity index, ratio of IC50 for human skin fibroblasts to IC50 for epimastigote stage of Trypanosoma cruzi CL Brener.
Assay [20] has as its system Bacillus cereus. As to the kind of experiment: Antibacterial activity against Bacillus cereus ATCC 14579 assessed as growth inhibition at 2 mg/ml after 24 hrs by disc agar diffusion method. In kind it is functional.
In assay [21] the test system is Staphylococcus aureus. Kind of assay: Antibacterial activity against Staphylococcus aureus ATCC 25923 assessed as growth inhibition at 2 mg/ml after 24 hrs by disc agar diffusion method. The assay is classed as functional.
Assay [22] has as its system Escherichia coli. Kind of assay: Antibacterial activity against Escherichia coli ATCC 35218 assessed as growth inhibition at 2 mg/ml after 24 hrs by disc agar diffusion method. In kind it is functional.
The subject of assay [23] is Pseudomonas aeruginosa. As to the kind of experiment: Antibacterial activity against Pseudomonas aeruginosa ATCC 27853 assessed as growth inhibition at 2 mg/ml after 24 hrs by disc agar diffusion method. The assay is classed as functional.
The test system of assay [24] is Bacillus cereus. Kind of assay: Antibacterial activity against Bacillus cereus ATCC 14579 assessed as growth inhibition at 20 ug after 24 hrs by disc agar diffusion method in presence of sulbactam. The assay is classed as functional, organism-based.
Assay [25] deals with Staphylococcus aureus. Kind of assay: Antibacterial activity against Staphylococcus aureus ATCC 25923 assessed as growth inhibition at 20 ug after 24 hrs by disc agar diffusion method in presence of sulbactam. In kind it is functional. The note with it: ATCC 25923, 24 h, read-out: DIZ.
For assay [26], the system named is Escherichia coli. Kind of assay: Antibacterial activity against Escherichia coli ATCC 35218 assessed as growth inhibition at 20 ug after 24 hrs by disc agar diffusion method in presence of sulbactam. The assay is classed as functional, organism-based.
For assay [27], the system named is Pseudomonas aeruginosa. As to the kind of experiment: Antibacterial activity against Pseudomonas aeruginosa ATCC 27853 assessed as growth inhibition at 20 ug after 24 hrs by disc agar diffusion method in presence of sulbactam. The assay is classed as functional. The note with it: ATCC 27853, 24 h, read-out: DIZ.

The source made the active and inactive calls. The calls are words filed in the database; no cut-off is given here.

The text below walks through data of ChEMBL document CHEMBL3585240, “Synthesis and biological evaluation of caracasine acid derivatives” (Bioorg Med Chem, 2015).

For orientation: IC50 means the point on the concentration scale where inhibition reaches its midpoint.

In the case of `CC1COc2c(N3CCN(C)CC3)c(F)cc3c(=O)c(C(=O)O)cn1c23` (configuration not stated) [OFLOXACIN], the zone of inhibition at 5 µg/disc in the assay with Bacillus cereus [1] came to 28 mm; in the assay on Staphylococcus aureus [2], 25 mm; with Escherichia coli [3], 24 mm; in the assay on Pseudomonas aeruginosa [4], 15 mm.
In the case of `NCC[C@H](O)C(=O)N[C@@H]1C[C@H](N)[C@@H](O[C@H]2O[C@H](CN)[C@@H](O)[C@H](O)[C@H]2O)[C@H](O)[C@H]1O[C@H]1O[C@H](CO)[C@@H](O)[C@H](N)[C@H]1O` [AMIKACIN], the zone of inhibition at 30 µg/disc in the assay with Bacillus cereus [5] is 32 mm; in the assay with Staphylococcus aureus [6], 16 mm; in the assay with Escherichia coli [7], 22 mm; in the assay with Pseudomonas aeruginosa [8] it was 16 mm.
For `CC[C@H]1OC(=O)C[C@@H](O)[C@H](C)[C@@H](O[C@@H]2O[C@H](C)[C@@H](O)[C@H](N(C)C)[C@H]2O)[C@@H](CCN2C[C@H](C)C[C@H](C)C2)C[C@@H](C)C(=O)/C=C/C(C)=C/[C@@H]1CO[C@@H]1O[C@H](C)[C@@H](O)[C@@H](OC)[C@H]1OC` [TILMICOSIN], the zone of inhibition at 15 µg/disc amounted to 32 mm with Bacillus cereus [9], 23 mm in the assay with Staphylococcus aureus [10], 18 mm in the assay on Escherichia coli [11] and 18 mm in the assay with Pseudomonas aeruginosa [12].
For `C=C1C(=O)[C@@]23CC[C@H](C(=C)C)[C@@](C)(CCC(=O)OCc4ccccc4)[C@@H]2CC[C@H]1C3`, the IC50 in the assay on PC-3 [13] turned out to be 5.5 µM; with MCF7 [14], 3.7 µM; in the assay on Leishmania mexicana it was 1000 nM; in the assay with Trypanosoma cruzi, 4.1 µM; in assay [15], 3.1 µM. Moreover, the “Ratio IC50” value in the assay on PC-3 [16] stood at 0.6; with MCF7 [17] it was 0.8; in assay [18], 3.1; in assay [19], 0.8. Also, the zone of inhibition at 2000 µg/mL in the assay with Bacillus cereus [20] (ATCC 14579, 24 h, read-out: DIZ) turned out to be 24 mm; with Staphylococcus aureus [21] (ATCC 25923, 24 h, read-out: DIZ), 15 mm; in the assay with Escherichia coli [22] (ATCC 35218, 24 h, read-out: DIZ), 22 mm; in the assay on Pseudomonas aeruginosa [23] (ATCC 27853, 24 h, read-out: DIZ), 15 mm.
As to `C=C1C(=O)[C@@]23CC[C@H](C(=C)C)[C@@](C)(CCC(=O)OCCCC)[C@@H]2CC[C@H]1C3`, the IC50 is 4.7 µM in the assay with PC-3 [13]; 5.6 µM in the assay on MCF7 [14]; 1200 nM with Leishmania mexicana; 4.2 µM with Trypanosoma cruzi; 7 µM in [15]. The “Ratio IC50” value in the assay with PC-3 [16] is recorded as 1.5; with MCF7 [17], 1.3; in assay [18] it was 5.8; in assay [19], 1.7. The “growth inhibition (GI)” value in the assay on Bacillus cereus [20], in the assay with Staphylococcus aureus [21], with Escherichia coli [22] and in the assay on Pseudomonas aeruginosa [23] was “inactive” each time.
In the case of `CC1(C)S[C@@H]2[C@H](NC(=O)[C@H](N)c3ccccc3)C(=O)N2[C@H]1C(=O)O` [AMPICILLIN], the “growth inhibition (GI)” value in the assay on Bacillus cereus [24] and in the assay with Escherichia coli [26] was “inactive” each time. Further, the zone of inhibition at 20 µg/disc with Staphylococcus aureus [25] is 18 mm; in the assay with Pseudomonas aeruginosa [27], 12 mm.
